The values below come from patent US8093232B2, “2α-methyl-19-nor-(20S)-1α-hydroxy-bishomopregnacalciferol and its uses” (Wisconsin Alumni Research Foundation, priority 2004, dated 2012).

The subject of assay [1] is Human promyelocytic leukemia (HL60) cells. The assay is described as follows: HL-60 cell differentiation (nitro blue tetrazolium reduction). The format is cell-based. The note with it: FIG. 2; for EC50: HL60 cells, 4 days, NBT reduction. As to the method:
The study drugs were dissolved in ethanol and the concentrations determined using UV spectrophotometry. Serial dilutions were prepared so that a range of drug concentrations could be tested without changing the final concentration of ethanol (≦0.2%) present in the cell cultures.
Human promyelocytic leukemia (HL60) cells were grown in RPMI-1640 medium containing 10% fetal bovine serum. The cells were incubated at 37° C. in the presence of 5% CO2.
HL60 cells were plated at 1.2×10^5 cells/ml. Eighteen hours after plating, cells in duplicate were treated with drug. […] The percentage of differentiated cells was determined by counting a total of 200 cells and recording the number that contained intracellular black-blue formazan deposits. Verification of differentiation to monocytic cells was determined by measuring phagocytic activity (data not shown).

Assay [2] concerns vitamin D-deficient rats. The assay is described as follows: Bone calcium mobilization (serum calcium) in vitamin D-deficient rats. In kind it is in vivo, rat. How it is done: (§1) Intestinal Calcium Transport and Bone Calcium Mobilization
(§2) Male, weanling Sprague-Dawley rats were placed on Diet 11 (0.47% Ca) diet+AEK for one week followed by Diet 11 (0.02% Ca)+AEK for 3 weeks. The rats were then switched to a diet containing 0.47% Ca for one week followed by two weeks on a diet containing 0.02% Ca. Dose administration began during the last week on 0.02% calcium diet. Four consecutive ip doses were given approximately 24 hours apart. Twenty-four hours after the last dose, blood was collected from the severed neck and the concentration of serum calcium determined as a measure of bone calcium mobilization. The first 10 cm of the intestine was also collected for intestinal calcium transport analysis using the everted gut sac method.

Assay [3] has as its system vitamin D-deficient rats. The assay is described as follows: Intestinal calcium transport (everted gut sac) in vitamin D-deficient rats. The format is in vivo, rat. Conditions: for intestinal calcium transport: everted gut sac, FIG. 5. As to the method: as §1, §2
Assay [4] deals with T1, full-length recombinant rat vitamin D receptor (Rattus norvegicus, UniProt P13053).
T1 construct: Full-length recombinant rat receptor was expressed in E. coli BL21 (DE3) Codon Plus RIL cells; histidine tag (C); made in house; host or cells: E. coli BL21 (DE3) Codon Plus RIL
T1 sequence (P13053 1-423): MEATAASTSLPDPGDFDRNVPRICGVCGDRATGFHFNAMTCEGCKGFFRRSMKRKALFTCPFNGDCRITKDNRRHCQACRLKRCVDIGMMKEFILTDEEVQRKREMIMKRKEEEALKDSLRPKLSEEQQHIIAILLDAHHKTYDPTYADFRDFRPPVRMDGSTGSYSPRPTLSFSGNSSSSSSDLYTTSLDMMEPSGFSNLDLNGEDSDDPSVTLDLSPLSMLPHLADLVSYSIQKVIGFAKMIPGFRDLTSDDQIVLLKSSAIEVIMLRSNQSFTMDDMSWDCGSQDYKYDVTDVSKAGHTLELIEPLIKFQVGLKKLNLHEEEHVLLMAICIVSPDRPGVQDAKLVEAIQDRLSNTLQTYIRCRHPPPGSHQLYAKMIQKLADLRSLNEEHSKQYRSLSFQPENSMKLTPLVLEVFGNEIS
Briefly: Vitamin D receptor competitive binding with [3H]-1,25(OH)2D3. Conditions: full-length recombinant rat VDR, FIG. 1. An excerpt: Vitamin D Receptor Binding
Full-length recombinant rat receptor was expressed in E. coli BL21 (DE3) Codon Plus RIL cells and purified to homogeneity using two different column chromatography systems. The first system was a nickel affinity resin that utilizes the C-terminal histidine tag on this protein. The protein that was eluted from this resin was further purified using ion exchange chromatography (S-Sepharose Fast Flow). Aliquots of the purified protein were quick frozen in liquid nitrogen and stored at −80° C. until use. For use in binding assays, the protein was diluted in TEDK50 (50 mM Tris, 1.5 mM EDTA, pH7.4, 5 mM DTT, 150 mM KCl) with 0.1% Chaps detergent. The receptor protein and ligand concentration were optimized such that no more than 20% of the added radiolabeled ligand was bound to the receptor.
Radiolabeled and unlabeled ligands were added to 100 mcl of the diluted protein at a final ethanol concentration of ≦10%, mixed and incubated overnight on ice to reach binding equilibrium. The following day, 100 mcl of hydroxylapatite slurry (50%) was added to each tube and mixed at 10-minute intervals for 30 minutes. The hydroxylapaptite was collected by centrifugation and then washed three times with Tris-EDTA buffer (50 mM Tris, 1.5 mM EDTA, pH 7.4) containing 0.5% Titron X-100. […] Total binding was determined from the tubes containing only radiolabeled ligand.

Assay [5] deals with 24-hydroxylase (24 Ohase) gene promoter. The assay is described as follows: In vitro transcription assay (24-hydroxylase promoter luciferase reporter in ROS 17/2.8 bone cells). In kind it is cell-based. The note with it: FIG. 3. As to the method: In Vitro Transcription Assay
Transcription activity was measured in ROS 17/2.8 (bone) cells that were stably transfected with a 24-hydroxylase (24 Ohase) gene promoter upstream of a luciferase reporter gene (Arbour et al., 1998). Cells were given a range of doses. Sixteen hours after dosing the cells were harvested and luciferase activities were measured using a luminometer.
RLU=relative luciferase units.

Regarding `C=C1/C(=C\C=C2/CCC[C@]3(C)[C@@H]([C@H](C)CCCC(C)(C)O)CC[C@@H]23)C[C@@H](O)C[C@@H]1O` [1,25(OH)2D3, 1α,25-dihydroxyvitamin D3, reference compound], the response in assay [1] was half-maximal at 3.6 nM (EC50). Further, in the assay with vitamin D-deficient rats [2] (rats on 0.02% Ca diet, 4 consecutive ip doses, all dosages, FIG. 4), the “serum calcium levels (bone calcium mobilization)” value was “increased serum calcium levels at all dosages”. The intestinal calcium transport entry in the assay on vitamin D-deficient rats [3] (260 pmol/day) is listed as “promotes a significant increase”.

Consider `CCC(C)C1CCC2C(=CC=C3CC(O)C(C)C(O)C3)CCCC21C` [2α-methylbisP, 2α-methyl-19-nor-(20S)-1α-hydroxy-bishomopregnacalciferol], for which, in assay [4], the “binding to the receptor as compared to the standard 1,25-(OH)2D3” value was “bound slightly less”. For the same molecule, in assay [4] (read-out: Ki, competition with [3H]-1,25(OH)2D3 for binding to the vitamin D receptor), the Ki (commonly the equilibrium dissociation constant of an inhibitor or competing ligand from its target) worked out at 1.6 nM. In addition, the “potency on HL-60 cell differentiation compared to 1,25(OH)2D3” value in assay [1] was “almost as potent as 1,25(OH)2D3”. Also, the EC50 (as a rule, the concentration at which the effect is half-maximal) is 37 nM in assay [1] (Homo sapiens, HL-60, 96 h) and 4.4 nM in assay [5] (ROS 17/2.8 cells, 24-OHase promoter-luciferase, 16 h, read-out: EC50, transcriptional activity in bone cells). The “transcriptional activity in bone cells compared to 1α,25-dihydroxyvitamin D3” value in assay [5] was “about the same transcriptional activity”. The “mobilization of bone calcium” value in the assay with vitamin D-deficient rats [2] (87 pmol/day for 4 consecutive days, rats on 0.02% Ca diet, FIG. 4) was “did not result in mobilization of bone calcium”; with vitamin D-deficient rats [2] (260 pmol/day, 780 pmol/day and 7020 pmol/day, rats on 0.02% Ca diet, FIG. 4), “without any substantial effect”. The “bone calcium mobilization activity as compared to 1,25(OH)2D3” value with vitamin D-deficient rats [2] (FIG. 4, overall) is reported as “very little bone calcium mobilization activity”. The intestinal calcium transport result in the assay on vitamin D-deficient rats [3] (87 pmol/day, 260 pmol/day or 780 pmol/day) is on record as “does not promote intestinal calcium transport”; in the assay with vitamin D-deficient rats [3] (2340 pmol/day) it was “significant intestinal calcium transport activity was recorded”. Besides, in the assay with vitamin D-deficient rats [3] (FIG. 5, overall), the “activity in stimulating intestinal calcium transport as compared to 1,25(OH)2D3” value is recorded as “very little activity”.
